In ChEMBL document CHEMBL4177660, “Discovery of furan and dihydrofuran-fused tricyclic benzo[d]imidazole derivatives as potent and orally efficacious microsomal prostaglandin E synthase-1 (mPGES-1) inhibitors: Part-1” (Bioorg Med Chem Lett, 2017):
In brackets after ≈: the same amount, converted by molar mass. Each block holds one compound with its values, some of them ahead of it.

What was measured:
[1] = Cmax in Dunkin-Hartley guinea pig at 100 mg/kg, po; type: ADME, organism-based, Cavia porcellus; parameters: dose 100 mg/kg, route oral; settings: in vivo
[2] = test system: Rattus norvegicus; experiment: Cmax in Sprague-Dawley rat at 10 mg/kg, po; type: ADME, organism-based; parameters: dose 10 mg/kg, route oral; settings: in vivo
[3] = Drug level in Sprague-Dawley rat brain; type: ADME, tissue-based; settings: in vivo
[4] = Ratio of drug level in Sprague-Dawley rat brain to plasma; type: ADME, cell-free; settings: brain and plasma, read-out: BPR
[5] = test system: Rattus norvegicus; experiment: Apparent volume of distribution in Sprague-Dawley rat at 1 mg/kg, iv; settings: in vivo
[6] = Plasma concentration in Dunkin-Hartley guinea pig model of LPS-induced thermal hyperalgesia at 10 mg/kg, po pretreated for 4 hrs followed by LPS challenge measured at […] post dose; type: ADME, organism-based, Cavia porcellus
[7] = Plasma concentration in Dunkin-Hartley guinea pig model of LPS-induced thermal hyperalgesia at 3 mg/kg, po pretreated for 4 hrs followed by LPS challenge measured at […] post dose; type: ADME, organism-based, Cavia porcellus
[8] = AUC (0 to 24 hrs) in cynomolgus monkey at 10 mg/kg, po; type: ADME, organism-based, Macaca fascicularis; parameters: dose 10 mg/kg, time < 24 hr, route oral; settings: in vivo
[9] = Intrinsic solubility of the compound; type: physicochemical
[10] = Solubility of the compound in acetate buffer at pH 4.5; type: physicochemical
[11] = test system: Cynomolgus monkey; experiment: Apparent volume of distribution in cynomolgus monkey at 10 mg/kg, po; type: ADME, organism-based, Macaca fascicularis; settings: in vivo
[12] = AUC (0 to 24 hrs) in Sprague-Dawley rat at 100 mg/kg, po; type: ADME, organism-based; parameters: dose 100 mg/kg, time < 24 hr, route oral; settings: in vivo
[13] = Solubility of the compound in FaSSIF at pH 6; type: physicochemical
[14] = Solubility of the compound in FeSSIF at pH 5.2; type: physicochemical
[15] = test system: Rattus norvegicus; experiment: Tmax in Sprague-Dawley rat at 10 mg/kg, po; type: ADME, organism-based; settings: in vivo
[16] = Cmax in cynomolgus monkey at 10 mg/kg, po; type: ADME, organism-based, Macaca fascicularis; parameters: dose 10 mg/kg, route oral; settings: in vivo
[17] = Tmax in Sprague-Dawley rat at 100 mg/kg, po; type: ADME, organism-based; settings: in vivo
[18] = Solubility of the compound in DMSO; type: physicochemical
[19] = Oral bioavailability in Sprague-Dawley rat at 30 mg/kg; type: ADME, organism-based; settings: in vivo
[20] = Cmax in Sprague-Dawley rat at 100 mg/kg, po; type: ADME, organism-based; parameters: dose 100 mg/kg, route oral; settings: in vivo
[21] = Tmax in Dunkin-Hartley guinea pig at 10 mg/kg, po; type: ADME, organism-based, Cavia porcellus; settings: in vivo
[22] = Tmax in Dunkin-Hartley guinea pig at 100 mg/kg, po; type: ADME, organism-based, Cavia porcellus; settings: in vivo
[23] = Cmax in Beagle dog at 10 mg/kg, po; type: ADME, organism-based, Canis lupus familiaris; parameters: dose 10 mg/kg, route oral; settings: in vivo
[24] = Oral bioavailability in cynomolgus monkey at 10 mg/kg; type: ADME, organism-based, Macaca fascicularis; settings: in vivo
[25] = Solubility of the compound in 0.1N HCl; type: physicochemical
[26] = test system: Rattus norvegicus; experiment: AUC (0 to 24 hrs) in Sprague-Dawley rat at 10 mg/kg, po; type: ADME, organism-based; parameters: time < 24 hr, dose 10 mg/kg, route oral; settings: in vivo
[27] = AUC (0 to 24 hrs) in Dunkin-Hartley guinea pig at 100 mg/kg, po; type: ADME, organism-based, Cavia porcellus; parameters: time < 24 hr, dose 100 mg/kg, route oral; settings: in vivo
[28] = AUC (0 to 24 hrs) in Beagle dog at 10 mg/kg, po; type: ADME, organism-based, Canis lupus familiaris; parameters: time < 24 hr, dose 10 mg/kg, route oral; settings: in vivo
[29] = Tmax in Dunkin-Hartley guinea pig at 30 mg/kg, po; type: ADME, organism-based, Cavia porcellus; settings: in vivo
[30] = Cmax in Dunkin-Hartley guinea pig at 10 mg/kg, po; type: ADME, organism-based, Cavia porcellus; parameters: dose 10 mg/kg, route oral; settings: in vivo
[31] = Tmax in cynomolgus monkey at 10 mg/kg, po; type: ADME, organism-based, Macaca fascicularis; settings: in vivo
[32] = Oral bioavailability in Sprague-Dawley rat at 10 mg/kg; type: ADME, organism-based; settings: in vivo
[33] = AUC (0 to 24 hrs) in Dunkin-Hartley guinea pig at 10 mg/kg, po; type: ADME, organism-based, Cavia porcellus; parameters: time < 24 hr, dose 10 mg/kg, route oral; settings: in vivo
[34] = Cmax in Dunkin-Hartley guinea pig at 30 mg/kg, po; type: ADME, organism-based, Cavia porcellus; parameters: dose 30 mg/kg, route oral; settings: in vivo
[35] = Plasma concentration in Dunkin-Hartley guinea pig model of LPS-induced thermal hyperalgesia at 30 mg/kg, po pretreated for 4 hrs followed by LPS challenge measured at […] post dose; type: ADME, organism-based, Cavia porcellus
[36] = Tmax in Beagle dog at 10 mg/kg, po; type: ADME, organism-based, Canis lupus familiaris; settings: in vivo
[37] = Tmax in Sprague-Dawley rat at 30 mg/kg, po; type: ADME, organism-based; settings: in vivo
[38] = Drug level in Sprague-Dawley rat plasma; type: ADME, cell-free
[39] = Cmax in Sprague-Dawley rat at 30 mg/kg, po; type: ADME, organism-based; parameters: dose 30 mg/kg, route oral; settings: in vivo
[40] = AUC (0 to 24 hrs) in Dunkin-Hartley guinea pig at 30 mg/kg, po; type: ADME, organism-based, Cavia porcellus; parameters: dose 30 mg/kg, time < 24 hr, route oral; settings: in vivo
[41] = AUC (0 to 24 hrs) in Sprague-Dawley rat at 30 mg/kg, po; type: ADME, organism-based; parameters: time < 24 hr, dose 30 mg/kg, route oral; settings: in vivo
[42] = Permeability of the compound by PAMPA; type: ADME; settings: read-out: permeability

Compound: CC1(C)Cc2c(c(C(=O)NCC(F)(F)C(F)(F)F)cc3nc(Nc4c(Cl)cccc4Cl)[nH]c23)O1
solubility [9]: Soluble

Compound: CC1(C)Cc2c(c(C(=O)NCC3CC3)cc3nc(Nc4c(Cl)cncc4Cl)[nH]c23)O1
solubility [9]: Soluble

Compound: CC1(C)Cc2c(c(C(=O)NC3CCC(F)(F)CC3)cc3nc(Nc4c(Cl)cccc4Cl)[nH]c23)O1
solubility [9]: Soluble

Compound: CC1(C)Cc2c(c(C(=O)NCC3CCCCC3)cc3nc(Nc4c(Cl)cncc4Cl)[nH]c23)O1
solubility [9]: Soluble

Compound: Cc1cc2c(o1)c(C(=O)Nc1ccc(C(F)(F)F)cc1)cc1nc(Nc3c(Cl)cncc3Cl)[nH]c12
solubility [9]: Insoluble

Compound: CC1(C)Cc2c(c(C(=O)NCC3CC3)cc3nc(Nc4c(Cl)cccc4Cl)[nH]c23)O1
solubility [9]: Soluble

Compound: CC1(C)Cc2c(c(C(=O)NCC3CCCC3)cc3nc(Nc4c(Cl)cccc4Cl)[nH]c23)O1
solubility [9]: Soluble

Compound: Cc1cc2c(o1)c(C(=O)Nc1ccc(C(F)(F)F)cc1)cc1nc(Nc3c(Cl)cccc3Cl)[nH]c12
solubility [9]: Insoluble

Compound: CC1(C)Cc2c(c(C(=O)Nc3ccc(C(F)(F)F)cc3F)cc3nc(Nc4c(Cl)cncc4Cl)[nH]c23)O1
solubility [9]: Soluble

Compound: Cc1cc2c(o1)c(C(=O)Nc1cccc(C(F)(F)F)c1)cc1nc(Nc3c(Cl)cccc3Cl)[nH]c12
solubility [9]: Insoluble

Compound: CC1(C)Cc2c(c(C(=O)NC3CCCCC3)cc3nc(Nc4c(Cl)cncc4Cl)[nH]c23)O1
solubility [9]: Soluble

Results, then the compound that gave them:

Cmax [1]: 736 ng/mL | Cmax [2]: 546 ng/mL | Drug uptake [3]: 58.9 ng/mL | Kp [4]: 0.22 | Vz [5]: 3.59 L/kg | concentration at […] [6]: 116 ng/mL | concentration at […] [7]: 43 ng/mL | AUC(0-t) at 24 h [8]: 16700 ng·h/mL | solubility [9]: Soluble | solubility [10]: Insoluble | Vz [11]: 1.67 L/kg | AUC(0-t) at 24 h [12]: 108000 ng·h/mL | solubility [13]: 0.9 µg/mL (≈ 1.73 µM) | solubility [14]: 0.6 µg/mL (≈ 1.16 µM) | Tmax [15]: 2 h | Cmax [16]: 908 ng/mL | Tmax [17]: 8 h | solubility [18]: 25000 µg/mL (≈ 48200 µM) | bioavailability [19]: 100% | Cmax [20]: 5550 ng/mL | Tmax [21]: 4 h | Tmax [22]: 2 h | Cmax [23]: 1090 ng/mL | bioavailability [24]: 78% | solubility [25]: 0.2 µg/mL (≈ 0.385 µM) | AUC [26]: 6505 ng·h/mL | AUC(0-t) at 24 h [27]: 11700 ng·h/mL | AUC(0-t) at 24 h [28]: 22000 ng·h/mL | Tmax [29]: 4 h | Cmax [30]: 426 ng/mL | Tmax [31]: 6 h | bioavailability [32]: 100% | AUC(0-t) at 24 h [33]: 5080 ng·h/mL | Cmax [34]: 742 ng/mL | concentration at […] [35]: 371 nM | Tmax [36]: 12 h | Tmax [37]: 2 h | Cp [38]: 268.9 ng/mL | Cmax [39]: 2530 ng/mL | AUC(0-t) at 24 h [40]: 11600 ng·h/mL | AUC(0-t) at 24 h [41]: 32400 ng·h/mL | Papp [42]: 0.13 ×10⁻⁶ cm/s
Compound: CC1(C)Cc2c(c(C(=O)Nc3ccc(C(F)(F)F)cc3)cc3nc(Nc4c(F)cccc4Cl)[nH]c23)O1

solubility [9]: Soluble
Compound: CC1(C)Cc2c(c(C(=O)Nc3ccc(F)cc3)cc3nc(Nc4c(Cl)cccc4Cl)[nH]c23)O1

solubility [9]: Soluble
Compound: CC1(C)Cc2c(c(C(=O)Nc3ccc(F)c(C(F)(F)F)c3)cc3nc(Nc4c(Cl)cncc4Cl)[nH]c23)O1

solubility [9]: Soluble
Compound: CC1(C)Cc2c(c(C(=O)Nc3ccccc3)cc3nc(Nc4c(Cl)cccc4Cl)[nH]c23)O1

solubility [9]: Soluble
Compound: CC1(C)Cc2c(c(C(=O)Nc3ccc(OC(F)F)nc3)cc3nc(Nc4c(F)cccc4Cl)[nH]c23)O1

solubility [9]: Soluble
Compound: COc1ccc(NC(=O)c2cc3nc(Nc4c(Cl)cccc4Cl)[nH]c3c3c2OC(C)(C)C3)cn1

solubility [9]: Soluble | solubility [10]: Insoluble | solubility [13]: 0.3 µg/mL (≈ 0.56 µM) | solubility [14]: 0.6 µg/mL (≈ 1.12 µM) | solubility [18]: 20000 µg/mL (≈ 37400 µM) | solubility [25]: 0.1 µg/mL (≈ 0.187 µM)
Compound: CC1(C)Cc2c(c(C(=O)Nc3ccc(C(F)(F)F)cc3)cc3nc(Nc4c(Cl)cccc4Cl)[nH]c23)O1

solubility [9]: Soluble
Compound: CC1(C)Cc2c(c(C(=O)Nc3ccc(Cl)cn3)cc3nc(Nc4c(F)cccc4Cl)[nH]c23)O1

solubility [9]: Soluble
Compound: CC1(C)Cc2c(c(C(=O)Nc3ccc(F)cc3)cc3nc(Nc4c(F)cccc4Cl)[nH]c23)O1

solubility [9]: Soluble
Compound: CC1(C)Cc2c(c(C(=O)Nc3cccc(C4CC4)c3)cc3nc(Nc4c(F)cccc4Cl)[nH]c23)O1

solubility [9]: Soluble
Compound: Cc1ccc(NC(=O)c2cc3nc(Nc4c(Cl)cccc4Cl)[nH]c3c3c2OC(C)(C)C3)c(C)n1

solubility [9]: Soluble
Compound: CC1(C)Cc2c(c(C(=O)Nc3ccc(C4CC4)cc3)cc3nc(Nc4c(F)cccc4Cl)[nH]c23)O1

solubility [9]: Soluble
Compound: CC1(C)Cc2c(c(C(=O)NCC(F)(F)F)cc3nc(Nc4c(Cl)cccc4Cl)[nH]c23)O1

solubility [9]: Soluble
Compound: CC1(C)Cc2c(c(C(=O)Nc3ccc(C(F)(F)F)nc3)cc3nc(Nc4c(Cl)cccc4Cl)[nH]c23)O1

solubility [9]: Soluble
Compound: CC1(C)Cc2c(c(C(=O)Nc3ccc(C(F)(F)F)cc3)cc3nc(Nc4c(Cl)cncc4Cl)[nH]c23)O1
